Source: US20070128217A1 (priority 2003, published 2007)

Legend:
[1] = test system: rabbit serum obtained by immunizing a rabbit with the SARS-CoV strain Frankfurt 1; type: binding; parameters: Binding of a rabbit serum to linear peptides / Binding of a rabbit serum to looped peptides / Rabbit serum linear peptides / Rabbit serum looped peptides / Binding of a rabbit serum to linear peptides of protein N of SARS-CoV Urbani (Rabbit serum linear peptides) / Binding of a rabbit serum to looped/cyclic peptides of protein N of SARS-CoV Urbani (Rabbit serum looped peptides): unit not given here
[2] = test system: antibodies in sera from SARS patients (sera 1a, 1b, 2, 6, 37, 62, London, SARS-yellow, SARS-green); type: binding, human; parameters: Binding of serum 6 to linear peptides of protein X1 of SARS-CoV Urbani / Binding of serum 37 to linear peptides of protein X1 of SARS-CoV Urbani / Binding of serum 6 to looped/cyclic peptide (PEPSCAN-ELISA) / Binding of serum 37 to looped/cyclic peptide (PEPSCAN-ELISA) / Binding of serum 37 to looped/cyclic peptides of protein X1 of SARS-CoV Urbani / Binding of serum 6 to linear peptides of protein X2 / Binding of serum 37 to linear peptides of protein X2 / Binding of serum 37 to looped/cyclic peptides of protein X2 of SARS-CoV Urbani / Binding of serum 6 to linear peptides of protein M of SARS-CoV Urbani / Binding of serum 37 to linear peptides of protein M of SARS-CoV Urbani / Binding of serum 6 to looped/cyclic peptides of protein M of SARS-CoV Urbani / Binding of serum 37 to looped/cyclic peptides of protein M of SARS-CoV Urbani / Binding of serum 6 to linear peptides of protein X3 of SARS-CoV Urbani / Binding of serum 37 to linear peptides of protein X3 of SARS-CoV Urbani / Binding of serum 37 to looped/cyclic peptides of protein X3 of SARS-CoV Urbani / Binding of serum 6 to linear peptides of protein X4 of SARS-CoV Urbani / Binding of serum 37 to linear peptides of protein X4 of SARS-CoV Urbani / Binding of serum 37 to looped/cyclic peptides of protein X4 of SARS-CoV Urbani / Binding of serum 6 to linear peptides of protein X5 of SARS-CoV Urbani / Binding of serum 37 to linear peptides of protein X5 of SARS-CoV Urbani / Binding of serum 37 to looped/cyclic peptides of protein X5 of SARS-CoV Urbani / Binding of serum 6 to linear peptides of protein N of SARS-CoV Urbani / Binding of serum 37 to linear peptides of protein N of SARS-CoV Urbani / Binding of serum 6 to linear peptide (PEPSCAN-ELISA) / Binding of serum 1a to looped/cyclic peptides of protein N of SARS-CoV Urbani / Binding of serum 1b to looped/cyclic peptides of protein N of SARS-CoV Urbani / Binding of serum 2 to looped/cyclic peptides of protein N of SARS-CoV Urbani / Binding of serum 6 to looped/cyclic peptides of protein N of SARS-CoV Urbani / Binding of serum 37 to looped/cyclic peptides of protein N of SARS-CoV Urbani / Binding of serum 62 to looped/cyclic peptides of protein N of SARS-CoV Urbani / Binding of serum London to looped/cyclic peptides of protein N of SARS-CoV Urbani / Binding of serum SARS-green to looped/cyclic peptides of protein N of SARS-CoV Urbani: unit not given here
[3] = test system: control sera (pooled serum of ten healthy LUMC hospital workers; commercial negative donor pooled serum from the Dutch bloodbank); type: binding, human; parameters: Binding of Control serum LUMC to linear peptides / Binding of Control serum Blood-bank to linear peptides / Binding of Control serum LUMC to looped peptides / Binding of Control Serum Blood-Bank to Looped peptides / Binding of Control serum LUMC to linear peptides of the protein M of SARS-CoV Urbani / Binding of Control serum Blood-bank to linear peptides of the protein M of SARS-CoV Urbani / Binding of Control serum LUMC to looped peptides of the protein M of SARS-CoV Urbani / Binding of Control Serum Blood-Bank to Looped peptides of the protein M of SARS-CoV Urbani: unit not given here

Sequence | Binding of Control Serum Blood-Bank to Looped peptides [3] | Binding of Control serum Blood-bank to linear peptides [3] | Binding of Control serum LUMC to linear peptides [3] | Binding of Control serum LUMC to looped peptides [3] | Binding of a rabbit serum to linear peptides [1] | Binding of a rabbit serum to looped peptides [1] | Binding of serum 1a to looped/cyclic peptides of protein X2 of SARS-CoV Urbani [2] | Binding of serum 1b to looped/cyclic peptides of protein X2 of SARS-CoV Urbani [2] | Binding of serum 2 to looped/cyclic peptides of protein X2 of SARS-CoV Urbani [2] | Binding of serum 6 to looped/cyclic peptides of protein X2 of SARS-CoV Urbani [2] | Binding of serum 37 to looped/cyclic peptides of protein X2 of SARS-CoV Urbani [2] | Binding of serum 62 to looped/cyclic peptides of protein X2 of SARS-CoV Urbani [2] | Binding of serum London to looped/cyclic peptides of protein X2 of SARS-CoV Urbani [2] | Binding of serum SARS-green to looped/cyclic peptides of protein X2 of SARS-CoV Urbani [2] | Binding of serum SARS-yellow to looped/cyclic peptides of protein X2 of SARS-CoV Urbani [2] | Recognition of the peptide by sera of SARS-CoV infected individuals, and form (linear, looped/cyclic) in which it is recognized [2] | Binding of serum 1a to linear peptides of protein X2 [2] | Binding of serum 1b to linear peptides of protein X2 [2] | Binding of serum 2 to linear peptides of protein X2 [2] | Binding of serum 6 to linear peptides of protein X2 [2] | other results
KVLPFHRWHTMVQTC | 0.6 | 0.6 | 0.4 | 0.5 |  |  |  |  |  |  |  |  |  |  |  |  |  |  |  |  | Rabbit serum linear peptides [1]: 0.6; Rabbit serum looped peptides [1]: 0.5; Binding of serum 1a to linear peptides of protein X5 of SARS-CoV Urbani [2]: 0.9; Binding of serum 1a to looped/cyclic peptides of protein X5 of SARS-CoV Urbani [2]: 0.7; Binding of serum 1b to linear peptides of protein X5 of SARS-CoV Urbani [2]: 0.6; Binding of serum 1b to looped/cyclic peptides of protein X5 of SARS-CoV Urbani [2]: 0.7; Binding of serum 2 to linear peptides of protein X5 of SARS-CoV Urbani [2]: 0.7; Binding of serum 2 to looped/cyclic peptides of protein X5 of SARS-CoV Urbani [2]: 0.6; Binding of serum 6 to linear peptides of protein X5 of SARS-CoV Urbani [2]: 0.5; Binding of serum 6 to looped/cyclic peptides of protein X5 of SARS-CoV Urbani [2]: 0.7; Binding of serum 37 to linear peptides of protein X5 of SARS-CoV Urbani [2]: 0.7; Binding of serum 37 to looped/cyclic peptides of protein X5 of SARS-CoV Urbani [2]: 0.6; Binding of serum 62 to linear peptides of protein X5 of SARS-CoV Urbani [2]: 0.7; Binding of serum 62 to looped/cyclic peptides of protein X5 of SARS-CoV Urbani [2]: 0.6; Binding of serum London to linear peptides of protein X5 of SARS-CoV Urbani [2]: 1.2; Binding of serum London to looped/cyclic peptides of protein X5 of SARS-CoV Urbani [2]: 0.4; Binding of serum SARS-green to linear peptides of protein X5 of SARS-CoV Urbani [2]: 0.6; Binding of serum SARS-green to looped/cyclic peptides of protein X5 of SARS-CoV Urbani [2]: 0.4; Binding of serum SARS-yellow to linear peptides of protein X5 of SARS-CoV Urbani [2]: 0.2; Binding of serum SARS-yellow to looped/cyclic peptides of protein X5 of SARS-CoV Urbani [2]: 0.3
KVSTNLCTHSFRKKQ | 0.4 | 1.0 | 0.8 | 0.7 | 0.3 | 0.1 | 0.4 | 0.3 | 0.5 | 0.5 | 0.4 | 0.6 | 0.2 | 0.3 | 0.5 | recognized in linear form |  |  |  |  | 
KVTAFQHQNSKKTTK | 0.3 | 0.2 | 0.3 | 0.3 | 0.6 | 0.2 | 0.2 | 0.2 | 0.0 | 0.0 | 0.2 | 0.3 | 0.1 | 0.0 | 0.1 |  | 0.3 | 0.2 | 0.2 | 0.2 | Binding of serum 37 to linear peptides of protein X2 [2]: 0.3; Binding of serum 62 to linear peptides of protein X2 [2]: 0.2; Binding of serum London to linear peptides of protein X2 [2]: 0.1; Binding of serum SARS-green to linear peptides of protein X2 [2]: 0.0; Binding of serum SARS-yellow to linear peptides of protein X2 [2]: 0.4
KYTQSTALQELLIQQ | 0.9 | 0.6 | 0.5 | 1.0 | 0.4 | 0.4 | 0.8 | 1.0 | 0.7 | 0.7 | 0.8 | 1.0 | 0.5 | 0.9 | 0.8 |  | 0.7 | 0.6 | 0.4 | 0.5 | Binding of serum 37 to linear peptides of protein X2 [2]: 0.6; Binding of serum 62 to linear peptides of protein X2 [2]: 0.6; Binding of serum London to linear peptides of protein X2 [2]: 0.5; Binding of serum SARS-green to linear peptides of protein X2 [2]: 0.6; Binding of serum SARS-yellow to linear peptides of protein X2 [2]: 0.6
LACLCKHKKVSTNLC | 0.3 | 0.8 | 0.7 | 0.4 | 0.3 | 0.3 | 0.3 | 0.3 | 0.2 | 0.2 | 0.3 | 0.4 | 0.2 | 0.2 | 0.3 | recognized in linear form |  |  |  |  | 
LALYKGFQFICNLLL | 0.6 | 0.6 | 0.5 | 0.6 | 0.2 | 0.6 |  |  |  |  |  |  |  |  |  |  |  |  |  |  | Binding of serum 1a to linear peptides of protein X1 of SARS-CoV Urbani [2]: 0.7; Binding of serum 1a to looped/cyclic peptide (PEPSCAN-ELISA) [2]: 0.5; Binding of serum 1b to linear peptides of protein X1 of SARS-CoV Urbani [2]: 0.5; Binding of serum 1b to looped/cyclic peptide (PEPSCAN-ELISA) [2]: 0.3; Binding of serum 2 to linear peptides of protein X1 of SARS-CoV Urbani [2]: 0.5; Binding of serum 2 to looped/cyclic peptide (PEPSCAN-ELISA) [2]: 0.4; Binding of serum 6 to linear peptides of protein X1 of SARS-CoV Urbani [2]: 0.4; Binding of serum 6 to looped/cyclic peptide (PEPSCAN-ELISA) [2]: 1.4; Binding of serum 37 to linear peptides of protein X1 of SARS-CoV Urbani [2]: 0.5; Binding of serum 37 to looped/cyclic peptide (PEPSCAN-ELISA) [2]: 0.5; Binding of serum 62 to linear peptides of protein X1 of SARS-CoV Urbani [2]: 0.6; Binding of serum 62 to looped/cyclic peptide (PEPSCAN-ELISA) [2]: 0.5; Binding of serum London to linear peptides of protein X1 of SARS-CoV Urbani [2]: 0.2; Binding of serum London to looped/cyclic peptide (PEPSCAN-ELISA) [2]: 1.4; Binding of serum SARS-green to linear peptides of protein X1 of SARS-CoV Urbani [2]: 0.2; Binding of serum SARS-green to looped/cyclic peptide (PEPSCAN-ELISA) [2]: 0.2; Binding of serum SARS-yellow to linear peptides of protein X1 of SARS-CoV Urbani [2]: 0.5; Binding of serum SARS-yellow to looped/cyclic peptide (PEPSCAN-ELISA) [2]: 0.5
